Measured values taken from PubChem BioAssay AID2060513 (Molecular Pharmacology Branch, DTP, NCI, 2025).
Each block holds one compound with its values, some of them ahead of it.

Tested on: 299254-011-R-J1-PDC complex spheroids viability
Test: Anticancer human tumor 299254-011-R-J1-PDC patient-derived melanoma cell line growth inhibition [GQUAD]
Settings: for IC50: curve of first compound; for viability, T/C: stronger effect = lower value
How it was run: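 Tumor cells were grown as complex spheroids with HUVEC endothelial cells and mesenchymal stem cells as stroma. G-quadruplex stabilizers were combined with targeted agents over half-log dilutions from near the clinical Cmax, or from 10 microM.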

[1] = second compound 0.0316 µM, first compound 0.0316 µM
[2] = second compound 0.0316 µM, first compound 0.1 µM
[3] = second compound 0.0316 µM, first compound 0.316 µM
[4] = second compound 0.0316 µM, first compound 1 µM
[5] = second compound 0.0316 µM, first compound 3.16 µM
[6] = second compound 0.0316 µM, first compound 10 µM
[7] = second compound 0.1 µM, first compound 0.0316 µM
[8] = second compound 0.1 µM, first compound 0.1 µM
[9] = second compound 0.1 µM, first compound 0.316 µM
[10] = second compound 0.1 µM, first compound 1 µM
[11] = second compound 0.1 µM, first compound 3.16 µM
[12] = second compound 0.1 µM, first compound 10 µM
[13] = second compound 0.316 µM, first compound 0.0316 µM
[14] = second compound 0.316 µM, first compound 0.1 µM
[15] = second compound 0.316 µM, first compound 0.316 µM
[16] = second compound 0.316 µM, first compound 1 µM
[17] = second compound 0.316 µM, first compound 3.16 µM
[18] = second compound 0.316 µM, first compound 10 µM
[19] = second compound 1 µM, first compound 0.0316 µM
[20] = second compound 1 µM, first compound 0.1 µM
[21] = second compound 1 µM, first compound 0.316 µM
[22] = second compound 1 µM, first compound 1 µM
[23] = second compound 1 µM, first compound 3.16 µM
[24] = second compound 1 µM, first compound 10 µM
[25] = second compound 3.16 µM, first compound 0.0316 µM
[26] = second compound 3.16 µM, first compound 0.1 µM
[27] = second compound 3.16 µM, first compound 0.316 µM
[28] = second compound 3.16 µM, first compound 1 µM
[29] = second compound 3.16 µM, first compound 3.16 µM
[30] = second compound 3.16 µM, first compound 10 µM
[31] = second compound 10 µM, first compound 0.0316 µM
[32] = second compound 10 µM, first compound 0.1 µM
[33] = second compound 10 µM, first compound 0.316 µM
[34] = second compound 10 µM, first compound 1 µM
[35] = second compound 10 µM, first compound 3.16 µM
[36] = second compound 10 µM, first compound 10 µM
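Note: spheroids exposed to the agents for seven days before readout.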
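Throughout, for viability, T/C: percent viability relative to DMSO vehicle control wells = 100%.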

IC50 (second compound 0.0316 µM): 1540 nM
IC50 (second compound 0.1 µM): 1500 nM
IC50 (second compound 0.316 µM): 1180 nM
IC50 (second compound 1 µM): 678 nM
IC50 (second compound 3.16 µM): 607 nM
IC50 (second compound 10 µM): < 31.6 nM
SMILES: C=CCn1c(=O)c2cnc(Nc3ccc(N4CCN(C)CC4)cc3)nc2n1-c1cccc(C(C)(C)O)n1 + Cc1cnc(CNC(=O)c2c(=O)c3ccc(N4CCCN(C)CC4)nc3n3c2sc2ccccc23)cn1
viability, T/C [1]: 118%
viability, T/C [2]: 109%
viability, T/C [3]: 100%
viability, T/C [4]: 55.2%
viability, T/C [5]: 41%
viability, T/C [6]: 25.3%
viability, T/C [7]: 109%
viability, T/C [8]: 112%
viability, T/C [9]: 77.3%
viability, T/C [10]: 64.2%
viability, T/C [11]: 31.5%
viability, T/C [12]: 27.1%
viability, T/C [13]: 89.8%
viability, T/C [14]: 125%
viability, T/C [15]: 88.2%
viability, T/C [16]: 55%
viability, T/C [17]: 30.1%
viability, T/C [18]: 30.1%
viability, T/C [19]: 75.3%
viability, T/C [20]: 80.8%
viability, T/C [21]: 71.9%
viability, T/C [22]: 38.6%
viability, T/C [23]: 27.9%
viability, T/C [24]: 24.4%
viability, T/C [25]: 73.3%
viability, T/C [26]: 74.9%
viability, T/C [27]: 55.5%
viability, T/C [28]: 44.4%
viability, T/C [29]: 28.9%
viability, T/C [30]: 20.2%
viability, T/C [31]: 19%
viability, T/C [32]: 15.2%
viability, T/C [33]: 41.8%
viability, T/C [34]: 36.9%
viability, T/C [35]: 0.45%
viability, T/C [36]: 0.32%

IC50 (second compound 0.0316 µM): 412 nM
IC50 (second compound 0.1 µM): 243 nM
IC50 (second compound 0.316 µM): 273 nM
IC50 (second compound 1 µM): 169 nM
IC50 (second compound 3.16 µM): 205 nM
IC50 (second compound 10 µM): < 31.6 nM
SMILES: CC(=O)O[C@H]1C(=O)[C@@]2(C)[C@H]([C@H](OC(=O)c3ccccc3)[C@]3(O)C[C@H](OC(=O)[C@H](O)[C@@H](NC(=O)c4ccccc4)c4ccccc4)C(C)=C1C3(C)C)[C@]1(OC(C)=O)CO[C@@H]1C[C@@H]2O + Cc1cnc(CNC(=O)c2c(=O)c3ccc(N4CCCN(C)CC4)nc3n3c2sc2ccccc23)cn1
viability, T/C [1]: 90%
viability, T/C [2]: 77.5%
viability, T/C [3]: 58.8%
viability, T/C [4]: 23.7%
viability, T/C [5]: 26.8%
viability, T/C [6]: 23%
viability, T/C [7]: 114%
viability, T/C [8]: 89.2%
viability, T/C [9]: 38.1%
viability, T/C [10]: 29.3%
viability, T/C [11]: 29.1%
viability, T/C [12]: 23.3%
viability, T/C [13]: 94.4%
viability, T/C [14]: 75.1%
viability, T/C [15]: 44.9%
viability, T/C [16]: 32.1%
viability, T/C [17]: 24.1%
viability, T/C [18]: 22.7%
viability, T/C [19]: 67.6%
viability, T/C [20]: 62.8%
viability, T/C [21]: 34.6%
viability, T/C [22]: 30.8%
viability, T/C [23]: 24.9%
viability, T/C [24]: 27.1%
viability, T/C [25]: 57.7%
viability, T/C [26]: 58%
viability, T/C [27]: 43.6%
viability, T/C [28]: 39.8%
viability, T/C [29]: 25.6%
viability, T/C [30]: 29.2%
viability, T/C [31]: 0.42%
viability, T/C [32]: 0.39%
viability, T/C [33]: 0.41%
viability, T/C [34]: 0.35%
viability, T/C [35]: 0.4%
viability, T/C [36]: 0.34%

IC50 (second compound 0.0316 µM): > 10000 nM
IC50 (second compound 0.1 µM): > 10000 nM
IC50 (second compound 0.316 µM): > 10000 nM
IC50 (second compound 1 µM): 4520 nM
IC50 (second compound 3.16 µM): 1960 nM
IC50 (second compound 10 µM): < 31.6 nM
SMILES: CC(C)(O)C1CCC(Nc2ccc3ncc(-c4cccc(C(F)(F)F)c4)n3n2)CC1 (stereo unspecified) + Cc1cnc(CNC(=O)c2c(=O)c3ccc(N4CCCN(C)CC4)nc3n3c2sc2ccccc23)cn1
viability, T/C [1]: 98.5%
viability, T/C [2]: 114%
viability, T/C [3]: 97.5%
viability, T/C [4]: 90.7%
viability, T/C [5]: 54.5%
viability, T/C [6]: 100%
viability, T/C [7]: 89.3%
viability, T/C [8]: 101%
viability, T/C [9]: 113%
viability, T/C [10]: 98.6%
viability, T/C [11]: 63.7%
viability, T/C [12]: 110%
viability, T/C [13]: 90.1%
viability, T/C [14]: 100%
viability, T/C [15]: 88.4%
viability, T/C [16]: 98.2%
viability, T/C [17]: 60%
viability, T/C [18]: 84%
viability, T/C [19]: 81.7%
viability, T/C [20]: 112%
viability, T/C [21]: 96.7%
viability, T/C [22]: 74.7%
viability, T/C [23]: 55.8%
viability, T/C [24]: 42.3%
viability, T/C [25]: 76.7%
viability, T/C [26]: 85.9%
viability, T/C [27]: 86.4%
viability, T/C [28]: 76.8%
viability, T/C [29]: 24.1%
viability, T/C [30]: 37.6%
viability, T/C [31]: 45.7%
viability, T/C [32]: 18%
viability, T/C [33]: 17.3%
viability, T/C [34]: 0.33%
viability, T/C [35]: 0.29%
viability, T/C [36]: 0.26%
